Measured values reported in patent publication US20180256611A1, “BISPHOSPHONATES FOR INCREASING THE TYPE 2 CHARACTER OF A MODIC CHANGE” (ANTECIP BIOVENTURES II LLC, priority 2017, published 2018).
Several values for one entry are separate records, joined by “and”; a condition that tells them apart may be missing. Identical values can stand only once.

System: Modic changes (MC) on MRI in chronic LBP patients
Assay: MRI study of size and type of Modic changes over one year after a single intravenous infusion of 5 mg zoledronic acid vs placebo
Format: in vivo, human
Method: This study was designed to compare changes in size and type of MC over one year after a single intravenous infusion of 5 mg zoledronic acid (ZA) vs placebo among chronic LBP patients with MC on MRI, and evaluate whether MRI changes correlate with improvement in clinical symptoms.
The study population consisted of patients with chronic LBP and MC on MRI. Inclusion criteria were LBP for at least three months, LBP intensity of at least six on a 10-cm Visual Analog Scale (VAS) or Oswestry Disability Index (ODI) of at least 30%, and a MC on MRI performed within at most six months prior to enrollment. The exclusion criteria included renal impairment, hypocalcaemia, hypersensitivity to bisphosphonates or the infusion, the presence of red flags, nerve root entrapment, willingness for early retirement, and childbearing potential.
All patients (N=20 in both intervention groups) had MRI at baseline (0.23-1.5 T) and one year (1.5-3 T). We evaluated the level, type, volume (cm^3) and proportion of M1 and M2 of all MC. MC were classified to pure M1 (M1 (100%)), mixed M1/2 with predominating M1 (M1/2 (65:35%)) or predominating M2 (M1/2 (35:65%)), and pure M2 (M2 (100%)). The first two were considered M1-dominant, and the latter two M2-dominant. Volumes of M1 and M2 were calculated separately for the primary MC, assumed to cause the symptoms, and for other MC. Cross tabulations were used to describe the distributions of MC type in ZA and placebo groups at baseline and one year. The treatment differences in M1 and M2 volumes, from baseline to one year, were analyzed using ANCOVA with adjustments for age, sex, body mass index and smoking. The correlations of MRI changes with changes in intensity of LBP (10-cm Visual Analog Scale) and Oswestry Disability Index (ODI) were analyzed using Pearson correlations.
Patients were randomized to receive a single intravenous infusion of 5 mg ZA in 100 ml saline (n=20) or 100 ml saline as placebo (n=20) over a 15-minute period. Before administration of the infusion, all patients received oral ibuprofen 600 mg or paracetamol 1 g to prevent acute phase reactions, and 100 000 units of Vitamin D (Vigantol®) to prevent hypocalcaemia. Patients, the principal investigator, performing the screening and follow-up assessments, and the radiologist evaluating the MRI scans were blinded to the treatment allocation.
Baseline MRIs were obtained with five 1.5 T units and a 0.23 T unit. There was some variation in imaging protocols due to the multiple units used. Protocols were of clinical imaging purpose established to spine imaging. The imaging parameters of sagittal T1-weighted (T1W) turbo spin-echo (TSE) or fast spin-echo (FSE) sequences with fluid attenuation inversion recovery (FLAIR) were repetition time (TR) 1800-2270 ms/inversion time (TI) 860 ms/echo time (TE) 9-29 ms (N=16) and without FLAIR: TR 326-793 ms/TE 8-18 ms (N=23). The imaging parameters of sagittal T2-weighted (T2W) TSE/FSE sequences were TR 3000-4500 ms/TE 105-130 ms (N=40). The imaging parameters of short tau inversion recovery sequences (STIR) were e.g. TR 3400/TI 150/TE 70. Spacing, including slice thickness and slice gap, of the image slices was 4.4-6.2 mm in all sequences.
At the one-year follow-up, MRIs were obtained with two 1.5 T units and a 3 T unit. The imaging parameters of sagittal T1-weighted TSE or FSE sequences with FLAIR were TR 2047-2270 ms/TI 860-900 ms/TE 9-29 ms (N=38) and without FLAIR: TR 540-587/TE 12-24 ms (N=2). The imaging parameters of sagittal T2-weighted TSE or FSE sequences were TR 2796-3500 ms/TE 101-123 ms (N=40). Spacing was 3.6-5 mm in all sequences.

[1] = ZA vs placebo, change to follow-up

O=P(O)(O)C(O)(Cn1ccnc1)P(=O)(O)O [ZA, zoledronic acid]
Total volume of other than the primary Modic lesion, difference (95% CI), unadjusted (ZA vs placebo): −0.21 (−1.28, 0.86) cm^3
Volume of M1 of other than the primary Modic lesion, difference (95% CI), unadjusted (ZA vs placebo): −0.17 (−2.12, 1.78) cm^3
Volume of M2 of other than the primary Modic lesion, difference (95% CI), unadjusted (ZA vs placebo): −0.04 (−1.99, 1.90) cm^3
Total volume of the primary Modic lesion, difference (95% CI), adjusted for age, sex, BMI and smoking [1]: −1.64 (−4.03, 0.76) cm^3
Total volume of the primary Modic lesion, difference (95% CI), age-adjusted analysis [1]: −1.46 (−3.50, 0.59) cm^3
Volume of M1 of the primary Modic lesion, difference (95% CI), age-adjusted analysis [1]: −1.92 (−4.65, 0.82) cm^3
Volume of M2 of the primary Modic lesion, difference (95% CI), adjusted for age, sex, BMI and smoking [1]: 0.12 cm^3 and 0.12 (−2.50, 2.75) cm^3
Volume of M2 of the primary Modic lesion, difference (95% CI), age-adjusted analysis [1]: 0.46 (−1.90, 2.82) cm^3
Proportion of M1 volume of the total volume, other than primary MC (at baseline, placebo 22%): 13%
Proportion of M1 volume of the total volume, other than primary MC (at one year, placebo 36%): 24%
Total volume of other than the primary Modic lesion, mean (SD) (baseline): 7.53 (7.53) cm^3
Total volume of the primary Modic lesion, mean (SD) (baseline): 12.0 cm^3 and 11.99 (5.14) cm^3
Volume of M2 of other than the primary Modic lesion, mean (SD) (baseline): 6.52 (7.63) cm^3
Volume of M2 of the primary Modic lesion, mean (SD) (baseline): 4.54 (3.90) cm^3
Total volume of other than the primary Modic lesion, mean (SD) change (baseline to follow-up): 0.39 (1.02) cm^3
Volume of M1 of other than the primary Modic lesion, mean (SD) change (baseline to follow-up): 0.86 (2.19) cm^3
Volume of M2 of other than the primary Modic lesion, mean (SD) change (baseline to follow-up): −0.47 (2.44) cm^3
Total volume of other than primary MC increased by (baseline to one year, placebo 11%): 5%
M2 volume of primary MC increased by (baseline to one year, placebo 34%): 56%
M1 volume of primary MC decreased by (baseline to one year, placebo increased by 18%): 13%
Total volume of the primary Modic lesion, mean (SD) change (baseline to one-year follow-up): 1.6 cm^3 and 1.58 (2.18) cm^3
Volume of M1 of the primary Modic lesion, mean (SD) change (baseline to one-year follow-up): −0.96 cm^3 and −0.96 (4.33) cm^3
Volume of M2 of the primary Modic lesion, mean (SD) change (baseline to one-year follow-up): 2.54 cm^3 and 2.54 (2.94) cm^3
Volume of M1 of other than the primary Modic lesion, mean (SD) (baseline, n=17): 1.02 (1.90) cm^3
Volume of M1 of the primary Modic lesion, mean (SD) (baseline, n=20): 7.44 (4.47) cm^3
Total volume of other than the primary Modic lesion, mean (SD) (follow-up): 7.92 (7.31) cm^3
Volume of M1 of other than the primary Modic lesion, mean (SD) (follow-up): 1.88 (2.47) cm^3
Volume of M2 of other than the primary Modic lesion, mean (SD) (follow-up): 6.05 (6.43) cm^3
Total volume of the primary Modic lesion, mean (SD) (follow-up (one year)): 13.57 (5.42) cm^3
Volume of M1 of the primary Modic lesion, mean (SD) (follow-up (one year)): 6.48 (5.25) cm^3
Volume of M2 of the primary Modic lesion, mean (SD) (follow-up (one year)): 7.09 (4.50) cm^3
M1-dominant primary MC converted to M2-dominant (one-year follow-up, placebo 15% (p=0.087)): 45%
